Patent publication US6147095A (priority 1999, dated 2000)
“Also recorded” adds a separate entry of the source. Read-outs that look alike come from different tables or passages of the source.

Assays:
[1] = human, in vivo
Experimental: A pharmacokinetic profile was obtained under steady-state conditions following 7 days of dosing. […] Forty-four subjects were Caucasian, 2 were Black, and 2 were Asian.
An aliquot (0.150 mL) was initially injected onto a short Zorbax® RX-C8 column which was connected via a column switching valve to the analytical column, Zorbax® RX-C8 column. The mobile phase was composed of acetonitrile:methanol:0.1% TFA in water, (40:35:25, v/v). Detection was by UV absorbance at 260 nm.
(§3) Pharmacokinetic parameters such as AUC, Cmax, tmax, oral clearance, and terminal half-life, were determined using standard noncompartmental techniques.

HIV = conditions: reported for tipranavir; cited from earlier work
clinical [2] = conditions: human, in vivo, po, CLPO (oral clearance)
Experimental: (§1) Baseline pharmacokinetic data for each drug were obtained under pharmacokinetic steady-state conditions following 7 days of dosing. Each drug was then co-administered for 10 days, at which time the pharmacokinetics of each was re-evaluated and compared with baseline data. […] All subjects were Caucasian. […] Pharmacokinetic analyses were based on results obtained in these subjects.
Detection was by UV absorbance at 260 nm.
(§2) Treatment effects on pharmacokinetic parameters were assessed using Wilcoxon's Signed Rank Test.

[3] = human, in vivo; remark: listed apart in the source
Experimental: The drugs were then coadministered for 10 days, after which the pharmacokinetics of each were re-evaluated and compared with baseline data. The study was conducted in 14 healthy volunteers (13 males and 1 female) with a mean age of 29.9 years (range, 21.3-43.9 years), height of 174.4 cm (range, 162.6-185.4 cm), and weight of 76.5 kg (range, 65.1-88.2 kg). Twelve subjects were Caucasian and two were of African descent. Ten subjects completed all aspects of the study. Pharmacokinetic analyses were based on the results obtained in these subjects. […] Detection was by UV absorbance at 260 nm.

CYP3A [4] = test: Enzyme induction; conditions: previous studies / in vitro and in vivo data
[5] = Table 1; cited from earlier work
[6] = Tipranavir drug-drug interaction potential (Table 1); conditions: with tipranavir
[7] = cited from earlier work
[8] = system: cytochrome P450 3A (CYP3A); conditions: known property; cited from earlier work
CYP3A [9] = conditions: delavirdine 200, 300, and 400 mg TID, HIV-1 infected patients, serial erythromycin breath tests; cited from earlier work
[10] = human, in vivo; remark: listed apart in the source
Experimental: as §1
Plasma samples were assayed for delavirdine concentrations using a validated, sensitive and specific isocratic high performance liquid chromatographic (HPLC) method: one for the upper concentration range, and one for the lower concentration range. […] The supernatant was mixed with buffer and directly injected. Chromatographic separation was achieved using a Brownlee cyano guard column and an analytical column, DuPont Zorbax® SB CN.
as §2

CYP3A [11] = conditions: cited from earlier work
CYP3A [12] = conditions: Table 1; cited from earlier work
[13] = human, in vivo; remark: listed apart in the source
Experimental: (§4) A pharmacokinetic profile was obtained under steady-state conditions following 7 days of dosing.
(§5) After elution from the SPE, a C-18AR analytical column was used to perform the chromatographic separation: the mobile phase was a gradient of methanol and 25 mM ammonium acetate. […] Retention times were approximately 1.5 minutes.
as §3

[14] = Study 2: pharmacokinetics of ritonavir co-administered with tipranavir in healthy volunteers; type: in vivo, human
Experimental: Both groups received their assigned dose of tipranavir continuously throughout the study period. […] The pharmacokinetics of tipranavir when coadministered with ritonavir were evaluated and compared with baseline data, while the ritonavir data were compared to historical data. The study was conducted in 19 healthy volunteers (16 males and 3 females) with a mean age of 30 years (range, 19-52 years), height of 177.1 cm (range, 162.6-190.5 cm), and weight of 76.7 kg (range, 57.3-95.0 kg). Eighteen subjects were Caucasian […]. […] Pharmacokinetic analyses were based on those subjects completing the baseline evaluation and at least one period of concomitant drug administration. […] Ritonavir and the internal standard (IS) were extracted from human plasma by liquid-liquid extraction with an ethyl acetate mixture.

clinical [15] = type: in vivo, human
Description: The drugs were then coadministered for 10 days, after which the pharmacokinetics of each were re-evaluated and compared with baseline data. […] Twelve subjects were Caucasian and two were of African descent. Ten subjects completed all aspects of the study. Pharmacokinetic analyses were based on the results obtained in these subjects. […] Ritonavir and the internal standard (IS) were extracted from human plasma by liquid-liquid extraction with an ethyl acetate mixture.

[16] = Example 4: pharmacokinetics of ritonavir oral solution with tipranavir SEDDS in healthy volunteers
Experimental: as §4, §5, §3

[17] = 200 mg BID with tipranavir 1250 mg BID vs ritonavir 500 mg BID alone

**Q.** For CCC[C@@]1(CCc2ccccc2)CC(O)=C([C@H](CC)c2cccc(NS(=O)(=O)c3ccc(C(F)(F)F)cn3)c2)C(=O)O1 (relative stereo) [Tipranavir, [R-(R*,R*)]-N-[3-[1-[5,6-Dihydro-4-hydroxy-2-oxo-6-(2-phenylethyl)-6-propyl-2H-pyran-3-yl]propyl]phenyl]-5-(trifluoromethyl)-2-pyridinesulfonamide], which “CLPO (oral clearance)” value [1] is on record?
**A.** 12.7 (6.1-23.7) L/h

**Q.** What about the “effect on apparent terminal half-life” value ([1]; po) of the same compound?
**A.** not significantly affected by ritonavir

**Q.** And the IC90 (HIV)?
**A.** 1 µM

**Q.** And the CL/F (clinical [2])?
**A.** 468 mL/min

**Q.** What about the “effect on elimination half-life (t1/2)” value [3] of the same compound?
**A.** not accompanied by a prolongation of the elimination half-life

**Q.** What about the “enzyme induction by tipranavir” value (CYP3A [4]) of the same compound?
**A.** induces its own metabolism over a wide dosage range; also recorded: enzyme inducer

**Q.** Which “Principal Route(s) of Elimination” value [5] does the source give for Nc1ccn([C@@H]2CS[C@H](CO)O2)c(=O)n1 [3TC] here?
**A.** Excreted unchanged in urine

**Q.** What does the source list for Cc1cn([C@H]2C[C@H](N=[N+]=[N-])[C@@H](CO)O2)c(=O)[nH]c1=O [AZT]?
**A.** Principal Route(s) of Elimination [5]: Conjugation/renal excretion; Potential for Clinically Significant Interaction [6]: Low

**Q.** Which “Principal Route(s) of Elimination” value [5] does the source give for CC(C)CN(C[C@@H](O)[C@H](Cc1ccccc1)NC(=O)O[C@H]1CCOC1)S(=O)(=O)c1ccc(N)cc1 [Amprenavir] here?
**A.** CYP3A

**Q.** What about the “decrease of AUC by rifampin” value ([7]; Table 1, protease inhibitors) of the same compound?
**A.** ~ 80%

**Q.** What about the “Potential for Clinically Significant Interaction” value [6] of the same compound?
**A.** High (and unfavorable)

**Q.** For CC(C)Nc1cccnc1N1CCN(C(=O)c2cc3cc(NS(C)(=O)=O)ccc3[nH]2)CC1 [Delavirdine], which “inhibition of CYP3A” value [8] is on record?
**A.** inhibits cytochrome P450 monooxygenase (CYP3A)

**Q.** What about the “inhibition of CYP3A in vivo” value (CYP3A [9]) of the same compound?
**A.** rapid and significant inhibition of CYP3A

**Q.** And the “CLPO (oral clearance)” value [10]?
**A.** 5.18 (1.5-7.8) L/h

**Q.** And the “delavirdine clearance with rifabutin or rifampin” value ([7]; coadministration of either rifabutin or rifampin)?
**A.** marked increase in delavirdine clearance

**Q.** And the “inhibition of CYP3A in vitro” value (CYP3A [11])?
**A.** non-competitively inhibit CYP3A

**Q.** Which CYP3A induction (CYP3A [12]) does the source give for O=C1Nc2ccc(Cl)cc2[C@@](C#CC2CC2)(C(F)(F)F)O1 [Efavirenz] here?
**A.** possible CYP3A inducer

**Q.** With CC(C)(C)NC(=O)[C@@H]1CN(Cc2cccnc2)CCN1C[C@@H](O)C[C@@H](Cc1ccccc1)C(=O)N[C@H]1c2ccccc2C[C@H]1O [Indinavir] as the compound, how does the “decrease of AUC by rifampin” value ([7]; Table 1, protease inhibitors) read?
**A.** ~ 80%

**Q.** Which “decrease of AUC by rifampin” value ([7]; human, in vivo) does the source give for Cc1c(O)cccc1C(=O)N[C@@H](CSc1ccccc1)[C@H](O)CN1C[C@H]2CCCC[C@H]2C[C@H]1C(=O)NC(C)(C)C [Nelfinavir] here?
**A.** ~ 80%

**Q.** Which “decrease of nevirapine concentrations by rifampin” value ([7]; in vivo) does the source give for Cc1ccnc2c1NC(=O)c1cccnc1N2C1CC1 [Nevirapine] here?
**A.** ~ 40%

**Q.** Which “effect on apparent elimination half-life” value [13] does the source give for CC(C)c1nc(CN(C)C(=O)N[C@H](C(=O)N[C@@H](Cc2ccccc2)C[C@H](O)[C@H](Cc2ccccc2)NC(=O)OCc2cncs2)C(C)C)cs1 [Ritonavir, (2S,3S,5S)-5(N-(N-((N-Methyl-N-((2-isopropyl-4-thiazoly)methyl)amino)carbonyl)-L-valinyl)amino)-2-(N-((5-thiazoly)methoxycarbonyl)amino)-1,6-diphenyl-3-hydroxhexane] here?
**A.** decreased relative to ritonavir given alone

**Q.** And the “effect of tipranavir on blood levels of ritonavir” value ([14]; Examples 1 and 2)?
**A.** lower blood levels of ritonavir

**Q.** And the ritonavir concentrations ([14]; co-administration of lowest tipranavir dose tested (600 mg BID))?
**A.** significantly and substantially declined

**Q.** And the “effect on elimination half-life” value ([14]; human, in vivo)?
**A.** shortening of the elimination hall-life

**Q.** What about the “decrease in steady-state plasma ritonavir concentrations” value ([14]; ritonavir 500 mg BID with tipranavir 600 or 900 mg BID vs ritonavir alone) of the same compound?
**A.** ~4 -fold

**Q.** And the “effect on apparent half-life of elimination” value (clinical [15]; human, in vivo)?
**A.** shorter apparent half-life of elimination

**Q.** What about the CL/F (clinical [15]; human, in vivo, po) of the same compound?
**A.** 85 mL/min

**Q.** What about the “CLPO (oral clearance)” value (clinical [15]; human, in vivo, po) of the same compound?
**A.** 5.1 (3.9-7.8) L/h

**Q.** What about the Tmax (clinical [15]; human, in vivo, po) of the same compound?
**A.** 3.0 (1.0-4.0) h

**Q.** What about the half-life (clinical [15]; human, plasma, po, 500 mg) of the same compound?
**A.** 2.9 h

**Q.** What about the “plasma ritonavir concentrations vs reported values” (clinical [15]; ritonavir 500 mg BID alone) of the same compound?
**A.** slightly higher than those reported in HIV-infected patients receiving ritonavir 600 mg doses twice daily

**Q.** What about the “plasma ritonavir concentrations vs published values” (clinical [15]; ritonavir 500 mg BID with tipranavir) of the same compound?
**A.** lower than published values for ritonavir 300 mg doses administered twice daily to HIV-infected patients

**Q.** And the “decrease in mean steady-state ritonavir concentrations” value (clinical [15]; ritonavir 500 mg BID with tipranavir 1350 mg BID vs alone)?
**A.** ~5 -fold

**Q.** And the “decrease of median ritonavir AUC” value [16, 17]?
**A.** 12 -fold

**Q.** What about the “decrease of median ritonavir Cmax” value [16, 17] of the same compound?
**A.** 10 -fold

**Q.** And the “decrease of median ritonavir Cmin” value [16, 17]?
**A.** 54 -fold

**Q.** What about the “ritonavir concentrations in the presence of tipranavir” value ([16]; presence of tipranavir) of the same compound?
**A.** greatly decreased

**Q.** Which “decrease of AUC by rifampin” value ([7]; human, in vivo) does the source give for CC(C)(C)NC(=O)[C@@H]1C[C@@H]2CCCC[C@@H]2CN1C[C@@H](O)[C@H](Cc1ccccc1)NC(=O)[C@H](CC(N)=O)NC(=O)c1ccc2ccccc2n1 [Saquinavir] here?
**A.** ~ 80%

**Q.** What about the “Potential for Clinically Significant Interaction” value [6] of the same compound?
**A.** High (and unfavorable)

**Q.** With O=c1[nH]cnc2c1ncn2[C@H]1CC[C@@H](CO)O1 [ddI] as the compound, how does the “Principal Route(s) of Elimination” value [5] read?
**A.** Tubular secretion

**Q.** What about the “Potential for Clinically Significant Interaction” value [6] of the same compound?
**A.** Low
